This is an account of results in PubChem BioAssay AID342 (DTP/NCI, 2004).

“And” between values parts separate entries of the source, which are not always exact repeats. Equal values may be shown once.

The test system of the test is Swiss mice, Sarcoma 180 sc, mean tumor weight T/C. Description: NCI In Vivo Anticancer Drug Screen. Data for tumor model Sarcoma 180 (subcutaneous) in Swiss mice. As to conditions: endpoint: mean tumor weight, higher = larger tumour. As to the method: The antitumor activity of compounds was measured in mice bearing transplantable tumors. Survival or tumor size were measured and the results are expressed as the measurement made in the treated group (T) divided by the measurement made in the vehicle treated control group (C). The tumor model used in this assay is Sarcoma 180 (subcutaneous) in Swiss mice

Where [1] appears, read: dose: 125.0 mg/kg/injection, schedule: Q01DX007 (ip), vehicle: carboxymethylcellulose (CMC).

For the compound `Clc1ccccc1/C=C/C=C1c2ccccc2-c2ccccc21`, the T/C by setting is: (dose: 222.0 mg/kg/injection, schedule: Q01DX007 (ip), vehicle: other) 72 % of control; (dose: 222.0 mg/kg/injection, schedule: Q01DX007 (ip), vehicle: saline) 83 % of control; (dose: 333.0 mg/kg/injection, schedule: Q01DX007 (ip), vehicle: other) 78 % of control; (dose: 333.0 mg/kg/injection, schedule: Q01DX007 (ip), vehicle: saline) 95 % of control; (dose: 492.0 mg/kg/injection, schedule: Q01DX007 (ip), vehicle: saline) 56 % of control; (dose: 500.0 mg/kg/injection, schedule: Q01DX007 (ip), vehicle: other) 50 % of control. Moreover, the T/C reads like this: (dose: 500.0 mg/kg/injection, schedule: Q01DX007 (ip), vehicle: saline) 79 % of control; (dose: 750.0 mg/kg/injection, schedule: Q01DX007 (ip), vehicle: other) 49 % of control; (dose: 1119.0 mg/kg/injection, schedule: Q01DX007 (ip), vehicle: saline) 58 % of control; (dose: 1679.0 mg/kg/injection, schedule: Q01DX007 (ip), vehicle: saline) 54 % of control.

Turning to `CNCCc1ccccc1`, where the note is “dose: 110.0 mg/kg/injection, schedule: Q01DX007 (ip), vehicle: saline”, the T/C is 77 % of control.

For the compound `CC1NC(=O)NC1CCCCCC(=O)O` (configuration not stated), the T/C was 103 % of control under setting [1]; 73 % of control (dose: 250.0 mg/kg/injection, schedule: Q01DX007 (ip), vehicle: carboxymethylcellulose (CMC)); 122 % of control (dose: 500.0 mg/kg/injection, schedule: Q01DX007 (ip), vehicle: carboxymethylcellulose (CMC)); 105 % of control (dose: 1000.0 mg/kg/injection, schedule: Q01DX007 (ip), vehicle: carboxymethylcellulose (CMC)).

Take `C[N+]1(CCC[N+]2(C)CC3C4C=CC(CC4)C3C2)CCOCC1` (configuration not stated): the T/C is, setting by setting: (dose: 7.75 mg/kg/injection, schedule: Q01DX007 (ip), vehicle: saline) 62 % of control; (dose: 15.5 mg/kg/injection, schedule: Q01DX007 (ip), vehicle: saline) 52 % of control; (dose: 31.0 mg/kg/injection, schedule: Q01DX007 (ip), vehicle: saline) 86 % of control; (dose: 62.0 mg/kg/injection, schedule: Q01DX007 (ip), vehicle: saline) 45 % of control.

In the case of `CC(=O)OC(C)(C)/C=C/C(=O)[C@](C)(O)[C@H]1[C@H](O)C[C@@]2(C)[C@@H]3CC=C4[C@@H](C=C(O)C(=O)C4(C)C)[C@]3(C)C(=O)C[C@]12C`, the T/C runs as follows: (dose: 0.4 mg/kg/injection, schedule: Q01DX007 (ip), vehicle: carboxymethylcellulose (CMC)) 54 % of control; (dose: 0.8 mg/kg/injection, schedule: Q01DX007 (ip), vehicle: carboxymethylcellulose (CMC)) 29 % of control; (dose: 1.6 mg/kg/injection, schedule: Q01DX007 (ip), vehicle: carboxymethylcellulose (CMC)) 94 % of control; (dose: 3.2 mg/kg/injection, schedule: Q01DX007 (ip), vehicle: carboxymethylcellulose (CMC)) 88 % of control.

In the case of `COc1ccc2c(c1)CC[C@@H]1[C@@H]2CC[C@@]2(C)[C@H]1CC[C@]2(C)O`, the T/C was 80 % of control (dose: 0.5 mg/kg/injection, schedule: Q#A X014 (sc), vehicle: steriod suspending solution); 113 % of control (dose: 5.0 mg/kg/injection, schedule: Q#A X014 (sc), vehicle: steriod suspending solution); 68 % of control (dose: 50.0 mg/kg/injection, schedule: Q#A X014 (sc), vehicle: steriod suspending solution).

On to `CC(C)(C)C(=O)/C=C/c1ccc([N+](=O)[O-])cc1`, for which the T/C reads like this: (dose: 50.0 mg/kg/injection, schedule: Q#A X014 (ip), vehicle: methylcellulose (MC)) 92 % of control; (dose: 187.5 mg/kg/injection, schedule: Q#A X014 (ip), vehicle: methylcellulose (MC)) 70 % of control.

For `CCCCOCN1CCCCC1`, the T/C reads like this: (dose: 50.0 mg/kg/injection, schedule: Q01DX007 (ip), vehicle: carboxymethylcellulose (CMC)) 64 % of control; (dose: 100.0 mg/kg/injection, schedule: Q01DX007 (ip), vehicle: carboxymethylcellulose (CMC)) 123 % of control.

On to `CCCCSc1ncnc2nc[nH]c12`, for which the T/C by setting is: (dose: 44.0 mg/kg/injection, schedule: Q01DX007 (ip), vehicle: carboxymethylcellulose (CMC)) 55 % of control; (dose: 51.0 mg/kg/injection, schedule: Q01DX007 (ip), vehicle: carboxymethylcellulose (CMC)) 53 % of control; (dose: 93.0 mg/kg/injection, schedule: Q01DX007 (ip), vehicle: carboxymethylcellulose (CMC)) 41 % of control.

With `Nc1nc(SCc2ccccc2)c2ncn(CCCl)c2n1`, the T/C reads like this: (dose: 56.0 mg/kg/injection, schedule: Q01DX007 (ip), vehicle: carboxymethylcellulose (CMC)) 36 % of control and 55 % of control; (dose: 83.0 mg/kg/injection, schedule: Q01DX007 (ip), vehicle: carboxymethylcellulose (CMC)) 35 % of control and 41 % of control; under setting [1], 12 % of control and 18 % of control.

For `Cn1c(N)nc2nc[nH]c2c1=S`, the T/C by setting is: (dose: 1.35 mg/kg/injection, schedule: Q#A X014 (ip), vehicle: methylcellulose (MC)) 108 % of control; (dose: 2.0 mg/kg/injection, schedule: Q#A X014 (ip), vehicle: methylcellulose (MC)) 45 % of control; (dose: 3.0 mg/kg/injection, schedule: Q#A X014 (ip), vehicle: methylcellulose (MC)) 67 % of control; (dose: 4.5 mg/kg/injection, schedule: Q#A X014 (ip), vehicle: methylcellulose (MC)) 37 % of control.

Regarding `O=CNc1c(Br)cc2c(c1Br)Cc1cc([N+](=O)[O-])ccc1-2`, the T/C by setting is: (dose: 7.0 mg/kg/injection, schedule: Q01DX007 (ip), vehicle: carboxymethylcellulose (CMC)) 52 % of control; (dose: 11.0 mg/kg/injection, schedule: Q01DX007 (ip), vehicle: carboxymethylcellulose (CMC)) 45 % of control; (dose: 17.0 mg/kg/injection, schedule: Q01DX007 (ip), vehicle: carboxymethylcellulose (CMC)) 40 % of control; (dose: 26.0 mg/kg/injection, schedule: Q01DX007 (ip), vehicle: carboxymethylcellulose (CMC)) 22 % of control.

As to `CCCC(=O)OCC1OC(n2cnc3c(=S)nc(N)[nH]c32)C(OC(=O)CCC)C1OC(=O)CCC` (configuration not stated), the T/C is 52 % of control (dose: 4.1 mg/kg/injection, schedule: Q01DX007 (ip), vehicle: carboxymethylcellulose (CMC)); 72 % of control (dose: 6.2 mg/kg/injection, schedule: Q01DX007 (ip), vehicle: carboxymethylcellulose (CMC)); 45 % of control (dose: 9.3 mg/kg/injection, schedule: Q01DX007 (ip), vehicle: carboxymethylcellulose (CMC)); 39 % of control (dose: 47.0 mg/kg/injection, schedule: Q01DX007 (ip), vehicle: carboxymethylcellulose (CMC)).

Consider `CCCOP(=S)(N1CC1)N1CC1`, for which the T/C by setting is: (dose: 6.65 mg/kg/injection, schedule: Q#A X014 (ip), vehicle: methylcellulose (MC)) 74 % of control; (dose: 6.65 mg/kg/injection, schedule: Q#A X014 (ip), vehicle: saline) 80 % of control and 89 % of control; (dose: 10.0 mg/kg/injection, schedule: Q#A X014 (ip), vehicle: methylcellulose (MC)) 67 % of control; (dose: 15.0 mg/kg/injection, schedule: Q#A X014 (ip), vehicle: methylcellulose (MC)) 47 % of control; (dose: 15.0 mg/kg/injection, schedule: Q#A X014 (ip), vehicle: saline) 37 % of control and 40 % of control.

`CN(C)C1C(=O)C(C(N)=O)=C(O)C2(O)C(=O)C3=C(O)c4c(O)cccc4C(C)(O)C3C(O)C12` (configuration not stated): the T/C was 98 % of control (dose: 15.12 mg/kg/injection, schedule: Q01DX007 (ip), vehicle: carboxymethylcellulose (CMC)); 111 % of control (dose: 17.5 mg/kg/injection, schedule: Q01DX007 (ip), vehicle: carboxymethylcellulose (CMC)); 124 % of control (dose: 31.25 mg/kg/injection, schedule: Q01DX007 (ip), vehicle: carboxymethylcellulose (CMC)); 105 % of control (dose: 35.0 mg/kg/injection, schedule: Q01DX007 (ip), vehicle: carboxymethylcellulose (CMC)); 117 % of control (dose: 62.5 mg/kg/injection, schedule: Q01DX007 (ip), vehicle: carboxymethylcellulose (CMC)); 102 % of control (dose: 70.0 mg/kg/injection, schedule: Q01DX007 (ip), vehicle: carboxymethylcellulose (CMC)). Also, the T/C by setting is: under setting [1], 50 % of control; (dose: 140.0 mg/kg/injection, schedule: Q01DX007 (ip), vehicle: carboxymethylcellulose (CMC)) 79 % of control.

With `Nc1cc(SCc2ccccc2)nc(N)n1`, the T/C is, setting by setting: (dose: 18.75 mg/kg/injection, schedule: Q#A X014 (ip), vehicle: methylcellulose (MC)) 52 % of control; (dose: 37.5 mg/kg/injection, schedule: Q#A X014 (ip), vehicle: methylcellulose (MC)) 70 % of control; (dose: 66.5 mg/kg/injection, schedule: Q#A X014 (ip), vehicle: methylcellulose (MC)) 29 % of control; (dose: 75.0 mg/kg/injection, schedule: Q#A X014 (ip), vehicle: methylcellulose (MC)) 68 % of control; (dose: 100.0 mg/kg/injection, schedule: Q#A X014 (ip), vehicle: methylcellulose (MC)) 40 % of control; (dose: 225.0 mg/kg/injection, schedule: Q#A X014 (ip), vehicle: methylcellulose (MC)) 35 % of control.
